Measurements as given in ChEMBL document CHEMBL2203118, “Ethyl 2,4,6-trihydroxybenzoate is an agonistic ligand for liver X receptor that induces cholesterol efflux from macrophages without affecting lipid accumulation in HepG2 cells” (Bioorg Med Chem Lett, 2012).
Calls of active or inactive are those of the source. The rule behind the calls is not given here.

Target: T1, Peroxisome proliferator-activated receptor alpha (Homo sapiens) (UniProt Q07869)
T1 sequence (whole entry): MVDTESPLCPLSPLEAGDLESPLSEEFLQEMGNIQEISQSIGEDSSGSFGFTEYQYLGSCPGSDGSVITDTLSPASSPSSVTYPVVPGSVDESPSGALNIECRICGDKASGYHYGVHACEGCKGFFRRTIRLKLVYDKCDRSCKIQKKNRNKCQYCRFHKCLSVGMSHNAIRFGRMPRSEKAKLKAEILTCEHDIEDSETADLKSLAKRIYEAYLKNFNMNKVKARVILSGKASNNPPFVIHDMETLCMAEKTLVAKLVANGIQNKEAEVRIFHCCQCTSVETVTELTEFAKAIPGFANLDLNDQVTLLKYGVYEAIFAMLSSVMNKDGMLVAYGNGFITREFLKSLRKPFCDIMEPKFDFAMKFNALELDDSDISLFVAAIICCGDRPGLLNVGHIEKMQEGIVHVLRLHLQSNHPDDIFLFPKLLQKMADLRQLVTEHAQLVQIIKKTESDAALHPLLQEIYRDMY
Assay: Transactivation of PPAR-alpha transfected in HEK293 cells at 10 uM after 24 hrs by luciferase reporter gene assay
Assay type: cell-based

Compound: CC(C)(Oc1ccc(C(=O)c2ccc(Cl)cc2)cc1)C(=O)O
- Activity: Active
